Test results as given in patent US10519140B2, “Indolin-2-one derivatives” (Hoffmann-La Roche Inc., priority 2015, dated 2019).

Target: T1, mouse ENT-1 transporter (Mus musculus, UniProt Q9JIM1)
T1 construct: expressed in transfected cells
T1 sequence (Q9JIM1 1-460): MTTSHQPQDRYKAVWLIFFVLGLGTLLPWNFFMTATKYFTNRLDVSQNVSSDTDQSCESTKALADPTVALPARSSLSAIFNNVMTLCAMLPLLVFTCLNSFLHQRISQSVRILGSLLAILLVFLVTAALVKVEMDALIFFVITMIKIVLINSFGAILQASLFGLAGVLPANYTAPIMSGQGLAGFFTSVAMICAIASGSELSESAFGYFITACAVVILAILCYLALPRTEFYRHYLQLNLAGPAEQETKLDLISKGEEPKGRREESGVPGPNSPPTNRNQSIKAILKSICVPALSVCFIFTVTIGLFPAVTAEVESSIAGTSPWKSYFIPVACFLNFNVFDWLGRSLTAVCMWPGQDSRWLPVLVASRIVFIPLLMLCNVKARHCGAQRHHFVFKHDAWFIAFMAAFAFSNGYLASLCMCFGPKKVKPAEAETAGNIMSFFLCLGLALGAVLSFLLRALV
Test: Adenosine transport activity (ENT1, [3H]-adenosine uptake inhibition)
Assay type: cell-based
Conditions: stable cells expressing mouse ENT-1; [2,8-3H]-adenosine 6 nM, 20 min
Description: To measure adenosine transport activity of ENT-1 mammalian cells, stable cells expressing the mouse ENT-1 transporter were plated on day 1 in 96-well culture plates at the density of 60,000 cells/well, in complete DMEM/F12 medium supplemented with glutamax, 10% FBS and 10 μg/ml puromycin. On day 2, the medium was aspirated and the cells were washed twice with uptake buffer (10 mM Hepes-Tris, pH 7.4 containing 150 mM NaCl, 1 mM CaCl2, 2.5 mM KCl, 2.5 mM MgSO4, 10 mM D-glucose) (UB). For inhibition experiments, cells were then incubated at RT with various concentrations of compounds with 1% DMSO final. Non-specific uptake was defined in the presence of 10 μM S-(4-Nitrobenzyl)-6-thioinosine (NBTI, Sigma Cat #N2255). A solution containing [2,8-^3H]-adenosine 6 nM (40 Ci/mmol, American Radiolabeled chemicals Inc, Cat #ART 0287A) was then immediately added to the wells. The plates were then incubated for 20 min with gentle shaking and the reaction was stopped by aspiration of the mixture and washing (three times) with ice-cold UB. The cells were lysed by the addition of scintillation liquid, shaken 3 hours and the radioactivity in the cells was estimated using a microplates scintillation counter (TopCount NXT, Packard).

Row | IC50 [nM] | SMILES
1 | 40.1 | Cc1ncc(-c2ccc3c(c2)N(c2ccc(C)c(N4CCOCC4)n2)C(=O)C3(C)C)cn1 [Example 31, 3,3-Dimethyl-1-(5-methyl-6-morpholinopyridin-2-yl)-6-(2-methylpyrimidin-5-yl)indolin-2-one]
2 | 32.4 | Cc1ncc(-c2ccc3c(c2)N(c2ccc(C)c(N4CCOC4=O)n2)C(=O)C3(C)C)cn1 [Example 32, 3-(6-(3,3-Dimethyl-6-(2-methylpyrimidin-5-yl)-2-oxoindolin-1-yl)-3-methylpyridin-2-yl)oxazolidin-2-one]
3 | 742 | Cc1ncc(-c2ccc3c(c2)N(c2cccc4[nH]ccc24)C(=O)C3(C)C)cn1 [Example 33, 1-(1H-Indol-4-yl)-3,3-dimethyl-6-(2-methylpyrimidin-5-yl)indolin-2-one]
4 | 838 | Cc1ncc(-c2ccc3c(c2)N(c2cncc4[nH]ccc24)C(=O)C3(C)C)cn1 [Example 34, 3,3-Dimethyl-6-(2-methylpyrimidin-5-yl)-1-(1H-pyrrolo[2,3-c]pyridin-4-yl)indolin-2-one]
5 | 496 | Cc1ncc(-c2ccc3c(c2)N(c2cnc4c(n2)[nH]c(=O)n4C)C(=O)C3(C)C)cn1 [Example 35, 5-(3,3-Dimethyl-6-(2-methylpyrimidin-5-yl)-2-oxoindolin-1-yl)-1-methyl-1H-imidazo[4,5-b]pyrazin-2(3H)-one]
6 | 375 | Cc1ncc(-c2ccc3c(c2)N(c2cnc4[nH]c(=O)[nH]c4n2)C(=O)C3(C)C)cn1 [Example 36, 5-(3,3-Dimethyl-6-(2-methylpyrimidin-5-yl)-2-oxoindolin-1-yl)-1H-imidazo[4,5-b]pyrazin-2(3H)-one]
7 | 6.7 | Cc1ncc(-c2ccc3c(c2)N(c2ccc4c(n2)NC(=O)C4(C)C)C(=O)C3(C)C)cn1 [Example 37, 6-(3,3-Dimethyl-6-(2-methylpyrimidin-5-yl)-2-oxoindolin-1-yl)-3,3-dimethyl-1H-pyrrolo[2,3-b]pyridin-2(3H)-one]
8 | 61.4 | Cc1ncc(-c2ccc3c(c2)N(c2cnc4c(c2)NC(=O)CO4)C(=O)C3(C)C)cn1 [Example 38, 7-(3,3-Dimethyl-6-(2-methylpyrimidin-5-yl)-2-oxoindolin-1-yl)-1H-pyrido[2,3-b][1,4]oxazin-2(3H)-one]
9 | 493 | Cc1ncc(-c2ccc3c(c2)N(c2cc4c(cn2)C(C)(C)C(=O)N4C2CC2)C(=O)C3(C)C)cn1 [Example 40, 1-Cyclopropyl-6-(3,3-dimethyl-6-(2-methylpyrimidin-5-yl)-2-oxoindolin-1-yl)-3,3-dimethyl-1H-pyrrolo [3,2-c]pyridin-2(3H)-one]
10 | 114 | Cc1ncc(-c2ccc3c(c2)N(c2ccc4c(c2)N(C)C(=O)C4(C)C)C(=O)C3(C)C)cn1 [Example 41, 1′,3,3,3′,3′-Pentamethyl-6-(2-methylpyrimidin-5-yl)-[1,6′-biindoline]-2,2′-dione]
11 | 193 | COc1ccc(CN2C(=O)C(C)(C)c3ccc(N4C(=O)C(C)(C)c5ccc(-c6cnc(C)nc6)cc54)cc32)cc1 [Example 42, 1′-(4-Methoxybenzyl)-3,3,3′,3′-tetramethyl-6-(2-methylpyrimidin-5-yl)-[1,6′-biindoline]-2,2′-dione]
12 | 385 | Cc1ncc(-c2ccc3c(c2)N(c2cc4c(cn2)C(C)(C)C(=O)N4)C(=O)C3(C)C)cn1 [Example 43, 6-(3,3-Dimethyl-6-(2-methylpyrimidin-5-yl)-2-oxoindolin-1-yl)-3,3-dimethyl-1H-pyrrolo[3,2-c]pyridin-2(3H)-one]
13 | 128 | Cc1ncc(-c2ccc3c(c2)N(c2ccc4c(c2)NC(=O)C4(C)C)C(=O)C3(C)C)cn1 [Example 44, 3,3,3′,3′-Tetramethyl-6-(2-methylpyrimidin-5-yl)-[1,6′-biindoline]-2,2′-dione]
14 | 593 | Cc1ncc(-c2ccc3c(c2)N(c2ccc4oc(C)nc4n2)C(=O)C3(C)C)cn1 [Example 45, 3,3-Dimethyl-1-(2-methyloxazolo[4,5-b]pyridin-5-yl)-6-(2-methylpyrimidin-5-yl)indolin-2-one]
15 | 244 | Cc1ncc(-c2ccc3c(c2)N(c2ccc4c(c2F)N(C)C(=O)C4(C)C)C(=O)C3(C)C)cn1 [Example 46, 7′-Fluoro-1′,3,3,3′,3′-pentamethyl-6-(2-methylpyrimidin-5-yl)-[1,6′-biindoline]-2,2′-dione]
16 | 184 | Cc1ncc(-c2ccc3c(c2)N(c2ccc4nnn(C)c4c2)C(=O)C3(C)C)cn1 [Example 48, 3,3-Dimethyl-1-(1-methyl-1H-benzo[d][1,2,3]triazol-6-yl)-6-(2-methylpyrimidin-5-yl)indolin-2-one]
17 | 415 | Cc1ncc(-c2ccc3c(c2)N(c2cnc(N4CCOCC4)cn2)C(=O)C3(C)C)cn1 [Example 49, 3,3-Dimethyl-6-(2-methylpyrimidin-5-yl)-1-(5-morpholinopyrazin-2-yl)indolin-2-one]
18 | 227 | Cc1ncc(-c2ccc3c(c2)N(c2cnc(N4[C@@H]5COC[C@H]4C5)cn2)C(=O)C3(C)C)cn1 [Example 51, 1-(5-((1R,5S)-3-Oxa-6-azabicyclo[3.1.1]heptan-6-yl)pyrazin-2-yl)-3,3-dimethyl-6-(2-methylpyrimidin-5-yl)indolin-2-one]
19 | 239 | Cc1ncc(-c2ccc3c(c2)N(c2cnc(NCCO)cn2)C(=O)C3(C)C)cn1 [Example 52, 1-(5-((2-Hydroxyethyl)amino)pyrazin-2-yl)-3,3-dimethyl-6-(2-methylpyrimidin-5-yl)indolin-2-one]
20 | 993 | Cc1ncc(-c2ccc3c(c2)N(c2cc4c(nn2)N(C2CC2)C(=O)C4(C)C)C(=O)C3(C)C)cn1 [Example 53, 7-Cyclopropyl-3-(3,3-dimethyl-6-(2-methylpyrimidin-5-yl)-2-oxoindolin-1-yl)-5,5-dimethyl-5H-pyrrolo[2,3-c]pyridazin-6(7H)-one]
21 | 202 | Cc1ncc(-c2ccc3c(c2)N(c2cncc(N4CC(C)(C)OC4=O)n2)C(=O)C3(C)C)cn1 [Example 56, 3-(6-(3,3-Dimethyl-6-(2-methylpyrimidin-5-yl)-2-oxoindolin-1-yl)pyrazin-2-yl)-5,5-dimethyloxazolidin-2-one]
22 | 60.8 | Cc1ncc(-c2ccc3c(c2)N(c2cncc(N4CCCS4(=O)=O)n2)C(=O)C3(C)C)cn1 [Example 57, 1-(6-(1,1-Dioxidoisothiazolidin-2-yl)pyrazin-2-yl)-3,3-dimethyl-6-(2-methylpyrimidin-5-yl)indolin-2-one]
23 | 243 | Cc1ncc(-c2ccc3c(c2)N(c2ccc4cc[nH]c4n2)C(=O)C3(C)C)cn1 [Example 58, 3,3-Dimethyl-6-(2-methylpyrimidin-5-yl)-1-(1H-pyrrolo [2,3-b]pyridin-6-yl)indolin-2-one]
24 | 203 | Cc1ncc(-c2ccc3c(c2)N(c2ccc4c(c2)N(C2COC2)C(=O)C4(C)C)C(=O)C3(C)C)cn1 [Example 59, 3,3,3′,3′-Tetramethyl-6-(2-methylpyrimidin-5-yl)-1′-(oxetan-3-yl)-[1,6′-biindoline]-2,2′-dione]
25 | 37.7 | Cc1ncc(-c2ccc3c(c2)N(c2ccc4cnn(C)c4c2)C(=O)C3(C)C)cn1 [Example 60, 3,3-Dimethyl-1-(1-methyl-1H-indazol-6-yl)-6-(2-methylpyrimidin-5-yl)indolin-2-one]
26 | 202 | Cc1ncc(-c2ccc3c(c2)N(c2ccc4c(C)nn(C)c4n2)C(=O)C3(C)C)cn1 [Example 61, 1-(1,3-Dimethyl-1H-pyrazolo[3,4-b]pyridin-6-yl)-3,3-dimethyl-6-(2-methylpyrimidin-5-yl)indolin-2-one]
27 | 428 | Cc1ncc(-c2ccc3c(c2)N(c2ccc4ccn(C)c4c2)C(=O)C3(C)C)cn1 [Example 62, 3,3-Dimethyl-1-(1-methyl-1H-indol-6-yl)-6-(2-methylpyrimidin-5-yl)indolin-2-one]
